From patent publication US6930091B2, “Peptides and remedy for bone diseases containing the same as active ingredient” (priority 1995, dated 2005)
Where no end group is shown, it is not given here.

Test system: ddy male mice
Details: mouse, in vivo, iv
Procedure: By using the peptide prepared in Example 1, its acute toxicity was tested on ddy male mice (with the body weight ranging from 40 to 45 g). The present peptide was dissolved in a physiological saline (pH 6.0) and the solution thereof was administered intravenously into a vein in the tail of each mouse, and observation was made for 14 days. The dosage amount was set respectively at 1, 10, and 100 μg/kg.

KLTTIFPLNWKYRKAL [Example 1, Lys Leu Thr Thr Ile Phe Pro Leu Asn Trp Lys Tyr Arg Lys Ala Leu]
Deceased mice (in words): not deceased mouse observed | Number of Deceased Mice: 0/5
